In ChEMBL document CHEMBL4382243, “The synthesis of 4-arylamido-2-arylaminoprimidines as potent EGFR T790M/L858R inhibitors for NSCLC” (Bioorg Med Chem, 2018):
Activity calls are given as the source filed them. No cut-off for these calls is given here.

Columns and labels:
[1] = target: Epidermal growth factor receptor (Homo sapiens, UniProt P00533, L858R/T790M); assay type: cell-based, Sf9
[2] = target: Epidermal growth factor receptor (Homo sapiens, UniProt P00533); assay type: ADME, cell-based, Sf9
Sequence of Epidermal growth factor receptor (Homo sapiens, UniProt P00533) (P00533 whole entry): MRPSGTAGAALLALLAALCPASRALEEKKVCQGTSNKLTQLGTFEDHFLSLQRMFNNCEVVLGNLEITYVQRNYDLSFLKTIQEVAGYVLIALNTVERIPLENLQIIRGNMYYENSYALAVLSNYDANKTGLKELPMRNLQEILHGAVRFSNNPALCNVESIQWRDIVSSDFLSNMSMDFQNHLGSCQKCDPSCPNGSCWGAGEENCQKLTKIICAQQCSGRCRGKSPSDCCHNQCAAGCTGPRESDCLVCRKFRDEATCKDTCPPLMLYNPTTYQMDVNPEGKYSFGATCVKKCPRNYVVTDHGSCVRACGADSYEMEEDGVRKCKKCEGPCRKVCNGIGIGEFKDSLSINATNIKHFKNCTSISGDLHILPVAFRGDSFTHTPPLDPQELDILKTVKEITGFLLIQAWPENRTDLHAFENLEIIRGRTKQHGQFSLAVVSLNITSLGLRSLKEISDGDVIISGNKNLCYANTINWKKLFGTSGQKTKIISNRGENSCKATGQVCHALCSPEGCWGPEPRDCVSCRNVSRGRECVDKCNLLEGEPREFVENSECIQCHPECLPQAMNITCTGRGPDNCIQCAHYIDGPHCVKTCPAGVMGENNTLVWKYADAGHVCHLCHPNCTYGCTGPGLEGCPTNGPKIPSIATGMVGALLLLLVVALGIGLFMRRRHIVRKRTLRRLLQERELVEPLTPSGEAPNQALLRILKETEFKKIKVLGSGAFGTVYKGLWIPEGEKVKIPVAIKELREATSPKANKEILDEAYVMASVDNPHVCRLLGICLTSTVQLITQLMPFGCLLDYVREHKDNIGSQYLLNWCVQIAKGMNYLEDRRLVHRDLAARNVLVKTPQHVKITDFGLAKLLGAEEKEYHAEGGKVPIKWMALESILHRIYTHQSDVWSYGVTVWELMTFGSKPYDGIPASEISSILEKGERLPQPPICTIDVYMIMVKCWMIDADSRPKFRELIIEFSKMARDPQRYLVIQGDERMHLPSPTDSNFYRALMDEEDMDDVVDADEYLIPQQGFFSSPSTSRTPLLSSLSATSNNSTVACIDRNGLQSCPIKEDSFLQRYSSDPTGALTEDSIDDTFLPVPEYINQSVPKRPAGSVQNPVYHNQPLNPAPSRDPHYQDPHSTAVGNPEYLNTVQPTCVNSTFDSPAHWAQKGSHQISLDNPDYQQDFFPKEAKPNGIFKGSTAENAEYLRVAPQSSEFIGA
Description: Inhibition of wild-type human N-terminal GST-tagged EGFR (695 to end residues) expressed in baculovirus infected Sf9 insect cells using Poly (4:1 Glu, Tyr) as substrate after 60 mins in presence of ATP by ADP-Glo assay

NCI-H1975 [3] = test: Antiproliferative activity against human NCI-H1975 cells harboring EGFR T790M/L858R double mutant after 72 hrs by MTT assay; assay type: functional, cell-based; conditions: NCI-H1975, 72 h
A-431 = test: cells; assay type: ADME, cell-based; conditions: Homo sapiens, A-431, 72 h;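 note: growth inhibition of A-431 cells expressing wild-type EGFR, read out by MTT assay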
Description: Antiproliferative activity against human A431 cells harboring wild-type EGFR after 72 hrs by MTT assay

A549 = test: cells; assay type: functional, cell-based; conditions: Homo sapiens, A549, 72 h
Description: Antiproliferative activity against human A549 cells after 72 hrs by MTT assay

ASPC1 = test: cells; assay type: functional, cell-based; conditions: Homo sapiens, ASPC1, 72 h;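 note: growth inhibition of the cells quantified with an MTT readout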
Description: Antiproliferative activity against human Aspc-1 cells after 72 hrs by MTT assay

NCI-H23 = test: Antiproliferative activity against human NCI-H23 cells after 72 hrs by MTT assay; assay type: functional, cell-based; conditions: NCI-H23, 72 h
cells = assay type: ADME, cell-based; conditions: Homo sapiens, NHBE, 72 h
Description: Antiproliferative activity against NHBE cells after 72 hrs by MTT assay

NCI-H1975 [4] = test: Antiproliferative activity against human NCI-H1975 cells harboring EGFR T790M/L858R double mutant assessed as cell viability at 0.1 uM after 24 hrs by MTT assay (reference value: 98.3%); assay type: functional; conditions: for viability at 0.1 µM: Homo sapiens, NCI-H1975, 24 h, read-out: Activity
NCI-H1975 [5] = test: Antiproliferative activity against human NCI-H1975 cells harboring EGFR T790M/L858R double mutant assessed as cell viability at 0.1 uM after 48 hrs by MTT assay (reference value: 98.3%); assay type: functional; conditions: for viability at 0.1 µM: Homo sapiens, NCI-H1975, 48 h, read-out: Activity
NCI-H1975 [6] = test: Antiproliferative activity against human NCI-H1975 cells harboring EGFR T790M/L858R double mutant assessed as cell viability at 0.1 uM after 72 hrs by MTT assay (reference value: 98.3%); assay type: functional; conditions: for viability at 0.1 µM: Homo sapiens, NCI-H1975, 72 h, read-out: Activity
NCI-H1975 [7] = test: Antiproliferative activity against human NCI-H1975 cells harboring EGFR T790M/L858R double mutant assessed as cell viability at 1 uM after 24 hrs by MTT assay (reference value: 98.3%); assay type: functional; conditions: for viability at 1 µM: Homo sapiens, NCI-H1975, 24 h, read-out: Activity
NCI-H1975 [8] = test: Antiproliferative activity against human NCI-H1975 cells harboring EGFR T790M/L858R double mutant assessed as cell viability at 1 uM after 48 hrs by MTT assay (reference value: 98.3%); assay type: functional; conditions: for viability at 1 µM: Homo sapiens, NCI-H1975, 48 h, read-out: Activity
NCI-H1975 [9] = test: Antiproliferative activity against human NCI-H1975 cells harboring EGFR T790M/L858R double mutant assessed as cell viability at 1 uM after 72 hrs by MTT assay (reference value: 98.3%); assay type: functional; conditions: for viability at 1 µM: Homo sapiens, NCI-H1975, 72 h, read-out: Activity
NCI-H1975 [10] = test: Antiproliferative activity against human NCI-H1975 cells harboring EGFR T790M/L858R double mutant assessed as cell viability at 10 uM after 24 hrs by MTT assay (reference value: 98.3%); assay type: functional; conditions: for viability at 10 µM: Homo sapiens, NCI-H1975, 24 h, read-out: Activity
NCI-H1975 [11] = test: Antiproliferative activity against human NCI-H1975 cells harboring EGFR T790M/L858R double mutant assessed as cell viability at 10 uM after 48 hrs by MTT assay (reference value: 98.3%); assay type: functional; conditions: for viability at 10 µM: Homo sapiens, NCI-H1975, 48 h, read-out: Activity
NCI-H1975 [12] = test: Antiproliferative activity against human NCI-H1975 cells harboring EGFR T790M/L858R double mutant assessed as cell viability at 10 uM after 72 hrs by MTT assay (reference value: 98.3%); assay type: functional; conditions: for viability at 10 µM: Homo sapiens, NCI-H1975, 72 h, read-out: Activity
NCI-H1975 [13] = test: Antimigratory activity against human NCI-H1975 cells at 5 to 10 uM up to 48 hrs by wound healing assay; assay type: functional, cell-based
NCI-H1975 [14] = test: Antiproliferative activity against human NCI-H1975 cells harboring EGFR T790M/L858R double mutant at 1 to 20 uM after 72 hrs by acridine orange/ethidium bromide staining based fluorescent microscopic analysis; assay type: functional, cell-based
NCI-H1975 [15] = test: Induction of apoptosis in human NCI-H1975 cells harboring EGFR T790M/L858R double mutant assessed as nuclear condensation at 1 to 20 uM after 72 hrs by DAPI staining based fluorescent microscopic analysis; assay type: functional, cell-based
NCI-H1975 [16] = test: Induction of apoptosis in human NCI-H1975 cells harboring EGFR T790M/L858R double mutant assessed as membrane blebbing at 1 to 20 uM after 72 hrs by DAPI staining based fluorescent microscopic analysis; assay type: functional, cell-based
NCI-H1975 [17] = test: Induction of apoptosis in human NCI-H1975 cells harboring EGFR T790M/L858R double mutant assessed as apoptotic body formation at 1 to 20 uM after 72 hrs by DAPI staining based fluorescent microscopic analysis; assay type: functional, cell-based

Sequence of Epidermal growth factor receptor (Homo sapiens, UniProt P00533, L858R/T790M) (P00533 25-1210 T790M/L858R limits assumed): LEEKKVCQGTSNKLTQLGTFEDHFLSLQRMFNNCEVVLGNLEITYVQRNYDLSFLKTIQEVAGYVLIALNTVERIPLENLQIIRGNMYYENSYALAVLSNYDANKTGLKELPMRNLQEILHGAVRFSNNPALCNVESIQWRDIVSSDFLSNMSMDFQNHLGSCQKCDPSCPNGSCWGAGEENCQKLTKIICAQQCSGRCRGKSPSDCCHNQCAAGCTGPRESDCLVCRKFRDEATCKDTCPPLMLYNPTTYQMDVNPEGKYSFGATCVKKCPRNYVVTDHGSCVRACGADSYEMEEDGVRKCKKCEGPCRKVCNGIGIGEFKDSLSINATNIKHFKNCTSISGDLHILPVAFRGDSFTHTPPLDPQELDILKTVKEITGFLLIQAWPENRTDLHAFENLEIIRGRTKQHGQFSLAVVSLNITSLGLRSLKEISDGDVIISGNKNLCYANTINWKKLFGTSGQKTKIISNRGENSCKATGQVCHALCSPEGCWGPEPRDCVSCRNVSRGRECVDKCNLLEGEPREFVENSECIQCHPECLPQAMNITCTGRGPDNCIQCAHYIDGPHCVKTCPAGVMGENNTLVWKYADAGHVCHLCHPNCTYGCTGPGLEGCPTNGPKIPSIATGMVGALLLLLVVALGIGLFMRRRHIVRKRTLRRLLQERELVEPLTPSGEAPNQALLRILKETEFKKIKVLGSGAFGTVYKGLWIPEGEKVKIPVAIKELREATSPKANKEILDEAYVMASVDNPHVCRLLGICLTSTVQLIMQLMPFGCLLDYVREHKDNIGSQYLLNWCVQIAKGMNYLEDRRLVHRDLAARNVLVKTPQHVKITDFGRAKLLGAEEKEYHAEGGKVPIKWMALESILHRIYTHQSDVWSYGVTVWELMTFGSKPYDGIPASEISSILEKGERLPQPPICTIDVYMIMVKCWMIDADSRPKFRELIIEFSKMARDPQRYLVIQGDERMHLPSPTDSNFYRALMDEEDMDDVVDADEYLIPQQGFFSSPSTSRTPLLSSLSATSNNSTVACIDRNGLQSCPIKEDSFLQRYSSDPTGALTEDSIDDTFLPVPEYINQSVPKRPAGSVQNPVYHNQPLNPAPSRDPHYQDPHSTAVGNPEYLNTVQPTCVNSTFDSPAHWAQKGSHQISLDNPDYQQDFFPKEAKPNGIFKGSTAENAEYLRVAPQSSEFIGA

| Compound | IC50 [1] | IC50 [2] | IC50 (NCI-H1975 [3]) | IC50 (A-431) | IC50 (A549) | IC50 (ASPC1) | IC50 (NCI-H23) | IC50 (cells) | also measured |
| --- | --- | --- | --- | --- | --- | --- | --- | --- | --- |
| C=CC(=O)Nc1cc(Nc2nccc(NC(=O)c3cccc(OC)c3)n2)c(OC)cc1N(C)CCN(C)C | 0.059 µM | 0.153 µM | 1.16 µM | 4.16 µM | 3 µM | 3.4 µM | 11.8 µM | 12.3 µM | – |
| C=CC(=O)Nc1cc(Nc2nccc(NC(=O)c3ccc(C(F)(F)F)cc3)n2)c(OC)cc1N(C)CCN(C)C | 0.0465 µM | 0.109 µM | 3.26 µM | 7.24 µM | 9.88 µM | 8.03 µM | 7.98 µM | 12.9 µM | – |
| C=CC(=O)Nc1cc(Nc2nccc(NC(=O)c3cccc(OC)c3)n2)c(OC)cc1N1CCN(C)CC1 | 0.055 µM | 0.147 µM | 4.23 µM | 1.59 µM | 6.45 µM | > 10 µM | 15.9 µM | 2.5 µM | – |
| C=CC(=O)Nc1cc(Nc2nccc(NC(=O)c3cccc4ccccc34)n2)c(OC)cc1N1CCN(C)CC1 | 0.0333 µM | 0.134 µM | 1.09 µM | 7.75 µM | 6.77 µM | 6.6 µM | 10.6 µM | 18.9 µM | – |
| C=CC(=O)Nc1cc(Nc2nccc(NC(=O)c3ccccc3)n2)c(OC)cc1N(C)CCN(C)C | 0.143 µM | 0.318 µM | 1.34 µM | 1.06 µM | 1.74 µM | 3.58 µM | > 16 µM | 15.1 µM | – |
| COc1cc2ncnc(Nc3ccc(F)c(Cl)c3)c2cc1OCCCN1CCOCC1 [GEFITINIB] | – | – | – | – | – | – | – | – | viability at 0.1 µM (NCI-H1975 [4]): 97.6%; viability at 0.1 µM (NCI-H1975 [5]): 93.5%; viability at 0.1 µM (NCI-H1975 [6]): 89.9%; viability at 1 µM (NCI-H1975 [7]): 90.6%; viability at 1 µM (NCI-H1975 [8]): 84.3%; viability at 1 µM (NCI-H1975 [9]): 63.2%; viability at 10 µM (NCI-H1975 [10]): 48.7%; viability at 10 µM (NCI-H1975 [11]): 32.7%; viability at 10 µM (NCI-H1975 [12]): 18.7% |
| C=CC(=O)Nc1cc(Nc2nccc(NC(=O)c3ccc(OC)c(OC)c3)n2)c(OC)cc1N(C)C | 0.0402 µM | 0.149 µM | 2.15 µM | 18.2 µM | – | – | – | – | – |
| C=CC(=O)Nc1cc(Nc2nccc(NC(=O)c3ccccc3)n2)c(OC)cc1N1CCC(C(N)=O)CC1 | 0.000587 µM | 0.181 µM | > 20 µM | 15.5 µM | – | – | – | – | – |
| C=CC(=O)Nc1cc(Nc2nccc(NC(=O)c3ccc(C(F)(F)F)cc3)n2)c(OC)cc1N1CCC(C(N)=O)CC1 | 0.0653 µM | 0.127 µM | 15.7 µM | > 20 µM | – | – | – | – | – |
| C=CC(=O)Nc1cc(Nc2nccc(NC(=O)c3ccc(OC)c(OC)c3)n2)c(OC)cc1N(C)CCN(C)C | 0.123 µM | 0.187 µM | 2.65 µM | 6.55 µM | 3.95 µM | 3.32 µM | 15.5 µM | 12.7 µM | – |
| C=CC(=O)Nc1cc(Nc2nccc(-c3cn(C)c4ccccc34)n2)c(OC)cc1N(C)CCN(C)C [OSIMERTINIB] | – | – | […] | […] | 3.24 µM | 3.98 µM | – | > 40 µM | Activity (NCI-H1975 [4]): 87.1%; Activity (NCI-H1975 [5]): 83.6%; Activity (NCI-H1975 [6]): 77.2%; Activity (NCI-H1975 [7]): 78.6%; Activity (NCI-H1975 [8]): 59%; Activity (NCI-H1975 [9]): 33.5%; Activity (NCI-H1975 [10]): 3.68%; Activity (NCI-H1975 [11]): 1.71%; Activity (NCI-H1975 [12]): 1.42% |
| C=CC(=O)Nc1cc(Nc2nccc(NC(=O)c3ccc(C(F)(F)F)cc3)n2)c(OC)cc1N1CCN(C)CC1 | 0.0279 µM | 0.152 µM | 3.42 µM | 9.2 µM | 7.89 µM | > 10 µM | 9.2 µM | 19.4 µM | – |
| C=CC(=O)Nc1cc(Nc2nccc(NC(=O)c3ccccc3)n2)c(OC)cc1N(C)C | – | – | > 20 µM | > 20 µM | – | – | – | – | – |
| C=CC(=O)Nc1cc(Nc2nccc(NC(=O)c3ccc(OC)c(OC)c3)n2)c(OC)cc1N1CCC(C(N)=O)CC1 | 0.0547 µM | 0.128 µM | 1.46 µM | 9.45 µM | 4.47 µM | > 10 µM | > 16 µM | > 40 µM | – |
| C=CC(=O)Nc1cc(Nc2nccc(NC(=O)c3cccc(OC)c3)n2)c(OC)cc1N1CCC(C(N)=O)CC1 | 0.0326 µM | 0.0505 µM | 11.5 µM | 13.1 µM | – | – | – | – | – |
| C=CC(=O)Nc1cc(Nc2nccc(NC(=O)c3ccc(OC)c(OC)c3)n2)c(OC)cc1N1CCN(C)CC1 | 0.0126 µM | 0.157 µM | 1.66 µM | 11.7 µM | 6.82 µM | > 10 µM | > 16 µM | 27 µM | viability at 0.1 µM (NCI-H1975 [4]): 93.8%; viability at 0.1 µM (NCI-H1975 [5]): 91.6%; viability at 0.1 µM (NCI-H1975 [6]): 90.2%; viability at 1 µM (NCI-H1975 [7]): 85.4%; viability at 1 µM (NCI-H1975 [8]): 74.8%; viability at 1 µM (NCI-H1975 [9]): 52.8%; viability at 10 µM (NCI-H1975 [10]): 41.4%; viability at 10 µM (NCI-H1975 [11]): 11.8%; viability at 10 µM (NCI-H1975 [12]): 5.8%; Activity (NCI-H1975 [13]): Active; Activity (NCI-H1975 [14]): Active; Activity (NCI-H1975 [15]): Active; Activity (NCI-H1975 [16]): Active; Activity (NCI-H1975 [17]): Active |
| C=CC(=O)Nc1cc(Nc2nccc(NC(=O)c3ccccc3)n2)c(OC)cc1N1CCN(C)CC1 | 0.121 µM | 0.156 µM | 1.42 µM | 3.94 µM | 5.97 µM | > 10 µM | > 16 µM | 23.9 µM | – |
